Results: patent US5306712A, “Fungicidal silicon-containing compounds and their agrochemical and medicinal uses” (Sanyo Company, Limited, priority 1991, dated 1994)
Converted amounts (≈) assume the structure as drawn. Read-outs that look alike come from different tables or passages of the source.

How the values were obtained:
Candida Albicans Sc. = test: Antifungal Test (MIC, Sabouraud's agar); format: cell-based; details: 48 h, C. albica, 27° C., 2 days
Protocol: (§1) (i) Preparation of the test solution: The sample to be tested was examined to determine a suitable solvent from those listed below and the method of dissolution, and then the sample was weighed (about 10 mg), dissolved in the selected solvent and diluted with sterilized distilled water to a concentration of 500 μg/ml. Samples of the resulting solution were then subjected to sequential dilution to half the previous concentration to prepare I2 samples in which the concentration of active compound is progressively halved.
(§2) (ii) Test procedure for antifungal activity: Using Nunklon (Registered trademark) 24.hole plates (manufactured by Nunk K. K.), 0.1 ml each of the diluted solutions described above was poured into a hole, 0.9 ml of Sabouraud's agar medium was added to each hole, giving a total of 1 ml in each hole, and mixed to prepare the plate medium.
1 Candida Albicans Sc. (C. albica)
(§3) These test strains were inoculated by means of a slant on Sabouraud's agar medium, cultured at 27° C. for 2 days for the yeast strains or for 7 to 14 days for the mold strains, and, kept intact, preserved at 5° C. (subcultured every 1 month). On the day of the test, in the case of the yeast medium, physiological saline to which had previously been added Tween 80 in an amount of 0.1% (w/v) was added to each medium to prepare 10^6 cells/ml suspensions; and, in the case of the mold medium, 4 ml each of the solution above was added to the surface of the agar slant, the surface was rubbed slightly with a stirrer or a platinum loop to suspend the spores, and then, by filtration through a funnel on which 2 sterilized gauzes were placed one upon another, 10^6 cells/ml suspensions were prepared. Using an Eppendorf pipette, 0.1 ml each of these suspension preparations was inoculated and cultivated. The culture was conducted at 27° C. for 2 days for the three strains of yeast, for 5 days for molds 4 , 5 and 6, and for 7 days for molds 7 and 8 to determine minimal inhibitory concentrations of the test samples.

Candida albicans 427 = test: Antifungal Test (MIC, Sabouraud's agar); format: cell-based
[1] = tested on: Cryptococcus neoformans 58063; test: Antifungal Test (MIC, Sabouraud's agar); format: cell-based; details: Cryptococcus neoformans, 58063, 48 h; C. neofor; 27° C., 2 days
Protocol: as §1, §2
3 Cryptococcus neoformans 58063 (C. neofor)
as §3

Mucor mucedo = test: Antifungal Test (MIC, Sabouraud's agar); format: cell-based; details: 120 h
Aspergillus fumigatus = test: Antifungal Test (MIC, Sabouraud's agar); format: cell-based; details: 120 h, A. fumiga, 27° C., 5 days
Protocol: as §1, §2
5 Aspergillus fumigatus (A. fumiga)
as §3

Microsporum gypseum = test: Antifungal Test (MIC, Sabouraud's agar); format: cell-based; details: Nannizzia gypsea, 120 h
Protocol: as §1, §2
6 Microsporum gypseum (M. gypseu)
as §3

[2] = tested on: Trichophyton mentagrophytes Sc.; test: Antifungal Test (MIC, Sabouraud's agar); format: cell-based; details: 168 h, T. mentag, 27° C., 7 days
Protocol: as §1, §2
7 Trichophyton mentagrophytes Sc. (T. mentag)
as §3

Trichophyton rubrum Sc. = test: Antifungal Test (MIC, Sabouraud's agar); format: cell-based; details: 168 h
[3] = tested on: Coriolus versicolor (Fungus D); test: Wood-preservative Activity (Antidecay); details: paper disc, 30 μl of 300 ppm acetone solution, 25° C., 5 days
Protocol: (§4) A fungal disc of about 4 mm diameter was inoculated on an agar medium (2% by weight malt extract, 1% glucose, 0.3% peptone and 2% agar) in a petri dish of diameter 9 cm, by placing the disc on the center of the medium. Paper disc specimens were prepared by impregnating 30 μl of an acetone solution containing 300 ppm of the test compound into the disc (diameter 8 mm, thickness 0.7 mm) and then subjecting it to dry sterilization. The disc specimens were placed in a circle at about 1 cm distance from the fringe of the grown fungus, three days after the inoculation. The specimens were then maintained at 25° C. for 5 days, after which the antifungal activity was determined by visual observation of infection of the specimens by the fungus.
(§5) The procedure described in Experiment 7 was repeated, except that the fungi tested were Coriolus versicolor (Fungus D) and Tyromyces palustris (Fungus E), which are prescribed in JIS A-9201.

[4] = tested on: Tyromyces palustris (Fungus E); test: Wood-preservative Activity (Antidecay); details: paper disc, 30 μl of 300 ppm acetone solution, 25° C., 5 days
Protocol: as §4, §5

[5] = tested on: Aspergillus niger (Fungus A); test: Antifungal Activity (paper disc on agar); details: 30 μl of 300 ppm acetone solution, 25° C., 5 days
Protocol: (§6) A fungal disc of about 4 mm diameter was inoculated on an agar medium (2% by weight malt extract, 1% glucose, 0.3% peptone and 2% agar) in a petri dish of diameter 9 cm, by placing the disc on the center of the medium. Paper disc specimens were prepared by impregnating 30 μl of an acetone solution containing 300 ppm of the test compound into the disc (diameter 8 mm, thickness 0.7 mm) and then subjecting it to dry sterilization. The disc specimens were placed in a circle at about 1 cm distance from the fringe of the grown fungus, three days after the inoculation. The specimens were then maintained at 25° C. for 5 days, after which the antifungal activity was determined by visual observation of infection of the specimens by the fungus. The fungi tested were:
Aspergillus niger (Fungus A),

[6] = tested on: Gliocladium virens (Fungus B); test: Antifungal Activity (paper disc on agar); details: 30 μl of 300 ppm acetone solution, 25° C., 5 days
Protocol: as §6
Gliocladium virens (Fungus B), and

[7] = tested on: Fusarium moliniforme (Fungus C); test: Antifungal Activity (paper disc on agar); details: 30 μl of 300 ppm acetone solution, 25° C., 5 days
Protocol: as §6
Fusarium moliniforme (Fungus C).
The antifungal activity is indicated by the following ratings:

SMILES	MIC (Candida Albicans Sc.) [µg/mL]	MIC (Candida albicans 427; Candida albicans, 48 h, C. alb 427, 27° C., 2 days, read-out: MIC) [µg/mL]	MIC [1] [µg/mL]	MIC (Mucor mucedo; M. mucedo, 27° C., 5 days, read-out: MIC) [µg/mL]	MIC (Aspergillus fumigatus) [µg/mL]	MIC (Microsporum gypseum) [µg/mL]	MIC [2] [µg/mL]	MIC (Trichophyton rubrum Sc.; T. rubrum, 27° C., 7 days, read-out: MIC) [µg/mL]	wood-preservative (antidecay) activity, Fungus D [3]	wood-preservative (antidecay) activity, Fungus E [4]	antifungal activity, Fungus A [5]	antifungal activity, Fungus B [6]	antifungal activity, Fungus C [7]	MIC (Candida albicans 427; Candida albicans, 427, 48 h) [µg/mL]	MIC (Mucor mucedo) [µg/mL]	MIC (Trichophyton rubrum Sc.) [µg/mL]
C[Si](C)(C)CC(O)(Cn1cncn1)c1ccc(F)cc1F (centres unmarked) [Compound 1-12, 2-(2,4-Difluorophenyl)-1-(1H-1,2,4-triazole-1-yl)-3-trimethylsilyl-2-propanol]	> 50	> 50	6.2 (≈ 19.9 µM)	12.5 (≈ 40.1 µM)	12.5 (≈ 40.1 µM)	1.5 (≈ 4.82 µM)	0.8 (≈ 2.57 µM)	0.8 (≈ 2.57 µM)	+	+	-	+	+			
C[Si](C)(C)CC(O)(Cn1cncn1)c1ccc(Cl)cc1 (centres unmarked) [Compound 1-2, 2-(4-Chlorophenyl)-1-(1H-1,2,4-triazol-1-yl)-3-trimethylsilyl-2-propanol]	> 50		12.5 (≈ 40.3 µM)		> 50	> 50	3.1 (≈ 10 µM)		+	+	+	+	+	> 50	> 50	3.1 (≈ 10 µM)
